Results taken from patent publication US20070078092A1, “Cell permeable conjugates of peptides for inhibition of protein kinases” (priority 2003, published 2007).
Counter-ions that a name gives are not always drawn. Like-named read-outs stand apart in the source and are kept apart here.

Columns and labels:
[1] = tested on: prostate cancer cell lines; experiment: Growth inhibition assay, combination with chemotherapeutic agents
Method: The chemotherapeutic agents used are: Mitoxantrone hydrochloride (Novantrone, Wyeth Lederle S.p.A. Catania, Italy) supplied as a sterile aqueous solution of 3.8 mM. Doxorubicin, Etoposide and Vinblastine sulfate salt (Sigma) were dissolved in 100% DMSO to prepare stock solutions at concentration of 10 mM. Docetaxel (Taxpter, Aventis) stock solution of 11.6 mM in polysorbate 80. These agents were diluted in medium just before use for in vitro studies.
Cells were incubated for five days in the present of the drugs followed by fixation and staining of cells with methylene blue.

[2] = target: T1, PKB (Homo sapiens, UniProt P31749); experiment: PKB in vitro kinase activity assay; format: biochemical
T1 construct: His; HA; made in house

[3] = tested on: PC3 cells; experiment: Growth inhibition assay in PC3 cells; format: cell-based, human; settings: 50 μM
From the text: (§1) Several cancer cell lines were used to determine the activity of PKB inhibitor compounds in intact cells. The human prostate carcinoma cell lines, PC-3 and LNCaP. The human acute T cells leukemia cell line, Jurkat. Human breast carcinoma cell lines: MCF-7 and MDA468 and renal adenocarcinoma cell 786-O. LNCaP,MDA468, 786-O and Jurkat cell lines express high basal level of activated PKB. PC-3 expresses moderate level of activated PKB. MCF-7 expresses low but inducible level of activated PKB. Control cells are PBLs, normal peripheral blood lymphocytes which obtained from normal donors (blood bank) and MCF10F which is a non tumorogenic breast cell line. […]
(§2) Cells were fixed by 0.5% glutardialdehyde followed by staining with 1% methylene blue in borate buffer (Sigma) for one hour. […] Quantitation of color intensity was performed by measurement of the optical density at 600 nm by ELISA reader. […]
(§3) At the appropriate time in culture 1uci of 3H-thymidine (stock of 5 Ci/mmole, Amersham) was added to each well containing 100 μl of medium for 5 hours. […] The radioactivity was counted using microplate counter, Packard TopCount.
(§4) Fifty percent inhibitory concentration (IC50) values were calculated using nonlinear regression in one site competition model with GraphPad Prism version 3.03 Windows (GraphPad Software, San Diego, USA)

[4] = tested on: LNCaP cells; experiment: Growth inhibition assay in LNCaP cells; format: cell-based, human; settings: Table 3, assay B2
From the text: as §1, §2, §3, §4

[5] = tested on: prostate cancer cell lines; experiment: Cell death and apoptosis in prostate cancer cell lines; format: cell-based, human
From the text: (§5) Several cancer cell lines were used to determine the activity of PKB inhibitor compounds in intact cells. The human prostate carcinoma cell lines, PC-3 and LNCaP. The human acute T cells leukemia cell line, Jurkat. Human breast carcinoma cell lines: MCF-7 and MDA468 and renal adenocarcinoma cell 786-O. LNCaP,MDA468, 786-O and Jurkat cell lines express high basal level of activated PKB. PC-3 expresses moderate level of activated PKB. MCF-7 expresses low but inducible level of activated PKB. Control cells are PBLs, normal peripheral blood lymphocytes which obtained from normal donors (blood bank) and MCF10F which is a non tumorogenic breast cell line. The control cells are used to compare the effect of the protein kinase inhibitors on the tested cancer cells and the normal cells.
Peptide conjugates, which are active in enzyme inhibition assays were tested in cells for induction of apoptosis of cancer cell lines. Apoptosis was assayed at least by two methods in each cell line. Cells were seeded at the appropriate plates for each method, treated with or without the inhibitory compounds for different time points and analyzed by one of the below methods.
Table 9 represents the cell death induced by the protein kinase inhibitors in prostate cancer cell lines vs. normal cells. […]

[6] = tested on: PC3 tumor xenograft; experiment: Efficacy study in mice bearing PC3 tumor, IT injection; format: in vivo; settings: high dose (3.3 mg/kg), every other day, second week, FIG. 8
Method: C2. Efficacy Study in Mice Bearing PC3 Tumor
a. PC3 cells ([…]) were injected subcutaneously in matrigel, into hip area of Nude male mice (Harlan Co., Israel). Tumor size was determined by caliper using the formula: Length ×(width^2)×0.4. The tumors were allowed to grow to volume of about 50 mm 3 before the treatment was started. The appropriate doses of compounds were injected subcutaneously into the region surrounding the tumors (IT injection). The treatment was given 3 times a week; every other day for two weeks, and the tumor size was measured once every two days.
The high safety of PTR 6164 allows a very large therapeutic window. The conjugates were further tested in vivo in efficacy studies as described in C2 above: • a. The peptides were injected every other day, at the tumor area. After 3 injections, an indicative tendency of reduction in tumor size was observed.

[7] = tested on: PC3 tumor xenograft; experiment: Efficacy study in mice bearing PC3 tumor, systemic administration; format: in vivo
Method: b. Human prostatic PC-3 cancer cells are grafted subcutaneously in 5 weeks old male nude Balb/c mice of approximately 20 g. Each mouse will receive 2.5×10^6cells at Day 0. Intraperitoneal (i.p.) treatment is initiated when tumour volume reaches approximately 50 mm^3. I.p. administration is highly acceptable in preliminary experiments, and exemplifies the stability in the blood and liver, and the distribution through the blood into the tumor. The control groups is treated with the vehicle 10% DMSO -90% 2-hydroxypropyl-beta-cyclodextrin at 1×10^−2M in sterile saline. Tumour volume measurements with callipers (equation=length×width^2×0.4) and body weights are recorded 3 times weekly on Mondays, Wednesdays and Fridays. Mice are monitored twice daily for general health status. Mice are sacrificed when the tumour mass in the respective vehicle treated groups reaches approximately 20% of the body weight or if this should not be obtained, 3 weeks after the end of the treatment. At the end of the experiment, the tumours of the 3 first sacrificed mice in each group are collected and embedded in paraffin blocks for further histological examination. The remaining tumours are collected and frozen in liquid nitrogen for western blot analysis.
Although the peptide dose was 3.3 mg/kg the MTD for this compound is 40 times higher, indicating a high therapeutic index. • b. Two concentrations were tested, 66 mg/kg and 33 mg/kg, which are 0.5 and 0.25 of the MTD. The relatively high doses were selected because we had no previous knowledge on the pharmacokinetics of the compound, and we wanted to obtain maximum effect, although we expected that toxic effects might occur as a result of the high dosing.
The compounds were dissolved in a solution of 10% DMSO/90% cyclodextrin in physiological saline. Six groups of 9 mice in each were tested. Two groups received the compound i.v, every 48 hours, and two groups received it daily, by i.p. injection. Treatment started at 7 days post graft, lasted for 21 days, followed by a 14-day observation period. The experiment consisted four experimental groups as in table 7:
It is clear that the effect of the inhibitors was very significant, despite the aggressiveness of the tumors.
Three tumors from each group were studies and a clear trend of increased apoptosis is observed in the treated tumors, implying induction of apoptosis through inhibition of PKB. Tumors were collected after the 14 days observation period in which no treatment was given, indicating long-term effect. The ratio between apoptosis to mitoses in tumor sections express the viability of the tumor. In a viable tissue mitotic process are dominant and apoptosis is minor while in dying tissue this ratio is reversed. […]

[8] = tested on: PKB downstream substrates GSK3 and FKHR; experiment: Inhibition of phosphorylation of PKB downstream substrates (Western blot); format: cell-based, human; settings: cancer cells
Method: B3. Inhibition of Phosphorylation of PKB and Downstream Substrates:
Peptide conjugates identified as inhibitors of PKB were further tested in cells for their ability to inhibit the phosphorylation of several PBK downstream substrates. The substrate GSK3 is associated with cell metabolism and cell cycle. Forkhead (FKHR) is directly associated with apoptosis. Inhibitory activity in these assays indicates also that the positive compounds penetrate into the cells.
Cells (2×10^6) were seeded in 25 cm^2 flasks grown for 2 days at normal medium conditions. Inhibitory compounds were added for 24 hrs and analyzed for their effect on PKB phosphorylation at Ser473 residue and on the phosphorylation of specific substrates of PKB, GSK3 and FKHR. At the end of the treatment cells were lysed using lysis buffer (20 mM Tris-HCl pH 7.4, 150 mM NaCl, 0.5% Triton-x100, 25 mM NaF, 2 mM AEBSF, 1 mM sodium orthovanadate, 10 mM β-glycerophosphate, 1 μg/ml aprotonin and 5 μg/ml leupeptin). Equal amounts of cell protein were resolved by 10% SDS-PAGE and electroblotted to PVDF membranes. Western blot analysis was performed using antibodies against phospho-Akt1 (Ser473), phospho-GSK3α (Ser21) and phosphor-FKHR (Thr24), which were obtained from Cell Signaling Technology and against Akt1 (Upstate), GSK3α (Transduction Laboratories), and FKHR (Cell Signaling Technology).

[9] = tested on: Prostate cancer PC3 and LNCaP, T-cell leukemia Jurkat, and breast cancer MCF-7; experiment: Cellular activity in the relevant cancer cell lines; format: cell-based, human
From the text: as §5
Selected peptide conjugates, which were found active in the enzyme-inhibition assays were screened for their ability to inhibit growth of tumor cell lines. Screening for inhibitory compounds was done, initially, at concentration of 50 μM. Active compounds from the first screening were further tested at different concentrations (50, 25, 12.5, 6.25, 3.125 and 1.56 μM) in order to determine their IC50. Growth inhibition was tested using two methods: A. staining of viable cells with methylene blue, B. incorporation of ^3H-thymidine. For both methods cells were grown in 96-well plates: LNCaP, 5000 cell per well for 72 hours, PC3, 5000 cells per well for 48 hours Jurkat, MDA468, and 786-O, 2500, 5000 and 1000 cells per well respectively for 24 hours, before tested compounds were added. The assays were done in triplicates for one to six days.
In addition, some of the new conjugates were also 10-20 times selective for PKB over PKA in contrast to previously described chimeric compounds. • 1. […] From the peptide transporter conjugates, 96 compounds were tested all were very active in the in-vitro kinase assay and very selective 10-50 fold, however only few were active in cells. The selected 6 active conjugates show 8-20 μM activity in cells.

[10] = 120 h, read-out: IC50 of chemotherapeutic agent alone
[11] = read-out: IC50 of chemotherapeutic agent +PTR 6320, combined with 1.5 μM of PTR 6320, five days, methylene blue
[12] = i.p. 33 mg/kg, tumors collected after the 14 days observation period

T1 sequence (P31749 whole entry, species assumed): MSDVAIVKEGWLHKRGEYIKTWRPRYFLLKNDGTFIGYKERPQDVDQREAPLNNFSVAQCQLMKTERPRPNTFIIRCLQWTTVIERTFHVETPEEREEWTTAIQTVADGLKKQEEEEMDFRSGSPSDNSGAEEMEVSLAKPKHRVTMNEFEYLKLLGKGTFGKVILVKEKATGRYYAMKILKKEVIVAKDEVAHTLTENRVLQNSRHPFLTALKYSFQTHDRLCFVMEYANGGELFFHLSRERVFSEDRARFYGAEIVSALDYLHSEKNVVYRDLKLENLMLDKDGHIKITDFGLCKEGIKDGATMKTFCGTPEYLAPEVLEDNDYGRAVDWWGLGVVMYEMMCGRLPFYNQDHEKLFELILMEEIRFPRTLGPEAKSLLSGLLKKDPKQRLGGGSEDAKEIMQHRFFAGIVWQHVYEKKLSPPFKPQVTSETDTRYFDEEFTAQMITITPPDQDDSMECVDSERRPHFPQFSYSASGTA

CC(=O)O[C@@]12CO[C@@H]1C[C@H](O)[C@@]1(C)C(=O)[C@H](O)C3=C(C)[C@@H](OC(=O)[C@H](O)[C@@H](NC(=O)OC(C)(C)C)c4ccccc4)C[C@@](O)([C@@H](OC(=O)c4ccccc4)[C@H]21)C3(C)C [Docetaxel]
IC50 [1, 10]: 0.6 nM | IC50 [1, 11]: 0.03 nM

COc1cccc2c1C(=O)c1c(O)c3c(c(O)c1C2=O)C[C@@](O)(C(=O)CO)C[C@@H]3O[C@H]1C[C@H](N)[C@H](O)[C@H](C)O1 [Doxorubicine, Doxorubicin]
IC50 [1, 10]: 13 nM | IC50 [1, 11]: 1.1 nM

COc1cc([C@@H]2c3cc4c(cc3[C@@H](O[C@@H]3O[C@@H]5CO[C@@H](C)O[C@H]5[C@H](O)[C@H]3O)[C@H]3COC(=O)[C@H]23)OCO4)cc(OC)c1O [Etoposide]
IC50 [1, 10]: 300 nM | IC50 [1, 11]: 17 nM

O=C1c2c(O)ccc(O)c2C(=O)c2c(NCCNCCO)ccc(NCCNCCO)c21 [Mitoxantrone, Mitoxantrone hydrochloride]
IC50 [1, 10]: 3.4 nM | IC50 [1, 11]: ~0.36 nM

CC[C@]1(O)C[C@@H]2CN(CCc3c([nH]c4ccccc34)[C@@](C(=O)OC)(c3cc4c(cc3OC)N(C)[C@H]3[C@@](O)(C(=O)OC)[C@H](OC(C)=O)[C@]5(CC)C=CCN6CC[C@]43[C@@H]65)C2)C1 [Vinblastine]
IC50 [1, 10]: 2.2 nM | IC50 [1, 11]: 0.1 nM

Ahx6-DArg-DArg-DArg-DArg-DGln-DArg-DArg-DLys-DLys-DArg-6154 [Peptide AB60025-54]
% Inhibition PKB activity ([2]; 1 μM): 95% | % Inhibition PKB activity ([2]; 10 μM): 97%

Arg-Gln-Ile-Lys-Ile-Trp-Phe-Gln-Asn-Arg-Arg-Met-Lys-Trp-Lys-Lys-6154 [Peptide AB60025-2]
% Inhibition PKB activity ([2]; 1 μM): 60% | % Inhibition PKB activity ([2]; 10 μM): 92% | % Inhibition PC3 growth [3]: 60% | IC50 [4]: < 12.5 µM

Arg-Gln-Ile-Lys-Ile-Trp-Phe-Gln-Asn-Arg-Arg-Met-Lys-Trp-Lys-Lys-6184 [Peptide AB60025-4]
% Inhibition PKB activity ([2]; 1 μM): 80% | % Inhibition PKB activity ([2]; 10 μM): 96% | % Inhibition PC3 growth [3]: 52% | IC50 [4]: 10 µM

Cholesteryl-O—CO-(DLys)3-Arg-Pro-Arg-Nva-Tyr-Dap-Hol-NH2 [PTR 6320]
improved in vitro selectivity in comparison to PTR 6164 ([2]; protein kinase B vs. protein kinase A, FIG. 11): about 20 times | concentration inducing apoptosis in cancer cells ([5]; cancer cells): 3 µM | efficacy / potency in cellular assays relative to PTR 6164 ([5]; compared with prototype PTR 6164): five times better efficacy

Cholesteryl-O—CO-Arg-Pro-Arg-Nva-Tyr-Dap-Hol-NH2 [PTR 6164]
tumor regression after injection at the tumor area [6]: four out of five animals showed complete regression of the tumor | effect on tumor growth ([7]; daily i.p. injections, 66 mg/kg and 33 mg/kg, 21 days): significant inhibition of tumor growth | Apoptosis in tumor sections [7, 12]: 5.6 | Mitoses in tumor sections [7, 12]: 3.4 | effect on tumor size ([7]; injections every 48 hours (i.v.), 66 mg/kg and 33 mg/kg): no effect on the tumor size | phosphorylation of GSK3 and FKHR [8]: decreases the phosphorylation of GSK3 and FKHR | cellular activity [9]: 12 µM

Myristyl-Gly-Arg-Pro-Arg-Nva-Tyr-Dap-Hol-NH2 [PTR 6180]
cellular activity [9]: 25 to 50 µM

Vitamin E succinate-Arg-Pro-Arg-Nva-Tyr-Dap-Hol-NH2 [PTR 6244]
cellular activity [9]: 15 to 20 µM
